We go through 14 compounds from patent EP4768484A1, “HETEROCYCLIC FUSED RING COMPOUND, AND COMPOSITION AND USE THEREOF” (Shenzhen TargetRx, Inc., priority 2023, dated 2025).

Assay type in all cases: cell-based
The target of test [1] is T1, Ba/F3 BCR-ABL1 WT (Homo sapiens, UniProt P00519+P11274).
T1 construct: BCR (N-terminal fusion partner of the oncoprotein); expressed in transfected cells; host or cells: Ba/F3 (lentiviral transduction, monoclonal line)
The test is described as follows: Cell growth inhibitory activity assay (CellTiter-Glo), Ba/F3 BCR-ABL1 WT cells. The note with it: 72 h, CTG cell viability. Summed up: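 Ba/F3 parental cells or Ba/F3 lines lentivirally transduced with WT or mutant BCR-ABL1, seeded overnight then exposed to serially diluted compound 72 h at 37 °C, 5% CO2. Viability by CellTiter-Glo ATP luminescence with a T0 plate; 0.5% DMSO controls; IC50 from four-parameter nonlinear fit.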
(In general: ATP-based viability assays read luminescence as a measure of living cells.)

Test [2] deals with K562 cells. As to the kind of experiment: Cell growth inhibitory activity assay (CellTiter-Glo), K562 cells. The note with it: Homo sapiens, 72 h, CTG cell viability. In outline: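 K562 cells in logarithmic growth were counted, diluted and plated in 96-well plates, with medium-only blanks and a separate T0 plate read by CTG the following day. After overnight incubation, graded compound concentrations were added for 72 h, with 0.5% DMSO wells as growth controls. Luminescence was read on a Biotek cytation3.0, and IC50 came from nonlinear fitting in GraphPad Prism 7.0.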

Test [3] relates to Ba/F3 parental cells. The test is described as follows: Cell growth inhibitory activity assay (CellTiter-Glo), Ba/F3 parental cells. The note with it: Mus musculus, BaF3, 72 h, CTG cell viability, read-out: IC50 Ba/F3 BCR-ABL1 Parental. Summed up:
(§1)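 Luminescent ATP read-out (CellTiter-Glo) after 72 h compound exposure at 37 °C, 5% CO2. Cells: monoclonal Ba/F3 lentivirally engineered with mutant BCR-ABL1, or parental Ba/F3. A T0 plate read the day after seeding; 0.5% DMSO wells as uninhibited growth control. IC50 via variable-slope logistic fit of % inhibition.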

Test [4] addresses T2, Ba/F3 BCR-ABL1 T315I (Homo sapiens, UniProt P00519+P11274, T315I).
T2 construct: BCR (N-terminal fusion partner of the oncoprotein); expressed in transfected cells; host or cells: Ba/F3 (lentiviral transduction, monoclonal line)
The test is described as follows: Cell growth inhibitory activity assay (CellTiter-Glo), Ba/F3 BCR-ABL1 T315I cells. The note with it: 72 h, CTG cell viability. In outline: as §1

For the compound `Cc1ccc(-n2ncc3c2-c2cc(-c4cc(C(=O)Nc5ccc(OC(F)(F)Cl)cc5)cc5nc6n(c45)[C@H](C)COC6)cnc2C3)nn1` [T-104-B, (R)-N-(4-(chlorodifluoromethoxy)phenyl)-4-methyl-6-(1-(6-methylpyridazin-3-yl)-1,4-dihydropyrazolo[3',4':3,4]cyclopenta[1,2-b]pyridin-7-yl)-3,4-dihydro-1H-benzo[4,5]imidazo[2,1-c][1,4]oxazine-8-carboxamide], the IC50 in test [1] was at most 5 nM; in test [2] it was at most 5 nM; in test [3], over 1000 nM; in test [4] it was 5 to 50 nM.

With `C[C@@H]1COCc2nc3cc(C(=O)Nc4ccc(OC(F)(F)Cl)cc4)cc(-c4ccc5c(c4)-c4n[nH]cc4C5)c3n21` [T-108, (R)-N-(4-(chlorodifluoromethoxy)phenyl)-6-(2,4-dihydroindeno[1,2-c]pyrazol-7-yl)-4-methyl-3,4-dihydro-1H-benzo[4,5]imidazo[2,1-c][1,4]xxazine-8-carboxamide], the IC50 is at most 5 nM in test [1], at most 5 nM in test [2], over 1000 nM in test [3] and over 1000 nM in test [4].

In the case of `C[C@@H]1COCc2nc3cc(C(=O)Nc4ccc(OC(F)(F)Cl)cc4)cc(-c4ccc5c(c4)-c4nn(-c6ncccn6)cc4C5)c3n21` [T-109], the IC50 in test [1] was at most 5 nM; in test [2], at most 5 nM; in test [3], over 1000 nM; in test [4], at most 5 nM.

For `CC(C)n1cc2c(n1)-c1cc(-c3cc(C(=O)Nc4ccc(OC(F)(F)Cl)cc4)cc4nc5n(c34)[C@H](C)COC5)ccc1C2` [T-110, (R)-N-(4-(chlorodifluoromethoxy)phenyl)-6-(2-isopropyl-2,4-dihydroindeno[1,2-c]pyrazol-7-yl)-4-methyl-3,4-dihydro-1H-benzo[4,5]imidazo[2,1-c][1,4]oxazine-8-carboxamide], the IC50 in test [1] is at most 5 nM; in test [2], at most 5 nM; in test [3], over 1000 nM; in test [4] it was 5 to 50 nM.

As for `C[C@@H]1COCc2nc3cc(C(=O)Nc4ccc(OC(F)(F)Cl)cc4)cc(-c4ccc5c(c4)-c4nc(N)sc4C5)c3n21` [T-111, (R)-6-(2-amino-8H-indeno[1,2-d]thiazol-5-yl)-N-(4-(chlorodifluoromethoxy)phenyl)-4-methyl-3,4-dihydro-1H-benzo[4,5]imidazo[2,1-c][1,4]oxazine-8-carboxamide], the IC50 in test [1] is at most 5 nM; in test [2], at most 5 nM; in test [3], over 1000 nM; in test [4], 5 to 50 nM.

As to `CC(=O)Nc1nc2c(s1)Cc1ccc(-c3cc(C(=O)Nc4ccc(OC(F)(F)Cl)cc4)cc4nc5n(c34)[C@H](C)COC5)cc1-2` [T-112, (R)-6-(2-acetamido-8H-indeno[1,2-d]thiazol-5-yl)-N-(4-(chlorodifluoromethoxy)phenyl)-4-methyl-3,4-dihydro-1H-benzo[4,5]imidazo[2,1-c][1,4]oxazine-8-carboxamide], the IC50 in test [1] was at most 5 nM; in test [2] it was at most 5 nM; in test [3], over 1000 nM; in test [4], 5 to 50 nM.

On to `C[C@@H]1COCc2nc3cc(C(=O)Nc4ccc(OC(F)(F)Cl)cc4)cc(-c4ccc5c(c4)-c4ncsc4C5)c3n21` [T-113, (R)-N-(4-(chlorodifluoromethoxy)phenyl)-6-(8H-indeno[1,2-d]thiazol-5-yl)-4-methyl-3,4-dihydro-1H-benzo[4,5]imidazo[2,1-c][1,4]oxazine-8-carboxamide], for which the IC50 was at most 5 nM in test [1], at most 5 nM in test [2], over 1000 nM in test [3] and 5 to 50 nM in test [4].

On to `C[C@@H]1CCSc2nc3cc(C(=O)Nc4ccc(OC(F)(F)Cl)cc4)cc(-c4cnccn4)c3n21` [T-116, (R)-N-(4-(chlorodifluoromethoxy)phenyl)-4-methyl-6-(pyrazin-2-yl)-3,4-dihydro-2H-benzo[4,5]imidazo[2,1-c][1,3]thiazine-8-carboxamide], for which the IC50 in test [1] is at most 5 nM; in test [2] it was at most 5 nM; in test [3], over 1000 nM; in test [4], 5 to 50 nM.

`CC(C)n1cnc2cc(C(=O)Nc3ccc(OC(F)(F)Cl)cc3)cc(-c3cnc4c(c3)-c3n[nH]cc3C4)c21` [T-119, N-(4-(chlorodifluoromethoxy)phenyl)-7-(2,4-dihvdropyrazolo[3',4':3,4]cyclopenta[1,2-b]pyridin-7-yl)-1-isopropyl-1H-benzo[d]imidazole-5-carboxamide]: the IC50 in test [1] is at most 5 nM; in test [2], at most 5 nM; in test [3] it was over 1000 nM; in test [4], 5 to 50 nM.

Regarding `CC(C)n1cnc2cc(C(=O)Nc3ccc(OC(F)(F)Cl)cc3)cc(-c3cnc4c(c3)-c3nn(-c5ncccn5)cc3C4)c21` [T-120, N-(4-(chlorodifluoromethoxy)phenyl)-1-isopropyl-7-(2-(pyrimidin-2-yl)-2,4-dihydropyrazolo[3',4':3,4]cyclopenta[1,2-b]pyridin-7-yl)-1H-benzo[d]imidazole-5-carboxamide], the IC50 in test [1] was at most 5 nM; in test [2], at most 5 nM; in test [3] it was over 1000 nM; in test [4] it was at most 5 nM.

For the compound `CC(C)n1cnc2cc(C(=O)Nc3ccc(OC(F)(F)Cl)cc3)cc(-c3cnc4c(c3)-c3nn(-c5ncc(F)cn5)cc3C4)c21` [T-121, N-(4-(chlorodifluoromethoxy)phenyl)-7-(2-(5-fluoropyrimidin-2-yl)-2,4-dihydropyrazolo[3',4':3,4]cyclopenta[1,2-b]pyridin-7-yl)-1-isopropyl-1H-benzo[d]imidazole-5-carboxamide], the IC50 is at most 5 nM in test [1], at most 5 nM in test [2], over 1000 nM in test [3] and at most 5 nM in test [4].

For the compound `CC1(C)C(=O)Nc2cc(C(=O)Nc3ccc(OC(F)(F)Cl)cc3)cc(-c3cnc4c(c3)-c3n[nH]cc3C4)c21` [T-122, N-(4-(chlorodifluoromethoxy)phenyl)-4-(2,4-dihydropyrazolo[3',4':3,4]cyclopenta[1,2-b]pyridin-7-yl)-3,3-dimethyl-2-oxoindoline-6-carboxamide], the IC50 in test [1] was at most 5 nM; in test [2] it was at most 5 nM; in test [3], over 1000 nM; in test [4], 5 to 50 nM.

On to `CC1(C)C(=O)Nc2cc(C(=O)Nc3ccc(OC(F)(F)Cl)cc3)cc(-c3cnc4c(c3)-c3nn(-c5ncccn5)cc3C4)c21` [T-123, N-(4-(chlorodifluoromethoxy)phenyl)-3,3-dimethyl-2-oxo-4-(2-(pyrimidin-2-yl)-2,4-dihydropyrazolo[3',4':3,4]cyclopenta[1,2-b]pyridin-7-yl)indoline-6-carboxamide], for which the IC50 is at most 5 nM in test [1], at most 5 nM in test [2], over 1000 nM in test [3] and at most 5 nM in test [4].

As to `CC1(C)C(=O)Nc2cc(C(=O)Nc3ccc(OC(F)(F)Cl)cc3)cc(-c3cnc4c(c3)-c3nn(-c5ncc(F)cn5)cc3C4)c21` [T-124, N-(4-(chlorodifluoromethoxy)phenyl)-4-(2-(5-fluoropyrimidin-2-yl)-2,4-dihydropyrazolo[3',4':3,4]cyclopenta[1,2-b]pyridin-7-yl)-3,3-dimethyl-2-oxoindoline-6-carboxamide], the IC50 in test [1] was at most 5 nM; in test [2], at most 5 nM; in test [3], over 1000 nM; in test [4] it was at most 5 nM.
